Results on 24 compounds are retold here after patent US9434711B2 (Janssen Pharmaceutica, NV, priority 2007, dated 2016).

For this assay, the target named is canine TRPM8 (Canis lupus familiaris, UniProt Q1A7N1). The experiment in a line: In Vitro Canine TRPM8 Functional Assay (Ca2+ fluorescence, icilin activation). It counts as cell-based. The following applies: for IC50: read-out: IC50; for inhibition at 0.2 µM: read-out: % Inh @ 0.2. Here is the method: The functional activity of compounds of the formula (I) was determined by measuring changes in intracellular calcium concentration using a Ca^2+-sensitive fluorescent dye. The changes in fluorescent signal were monitored by a fluorescence plate reader, either a FLIPR™ (Molecular Devices) or FDSS (Hamamatsu).
canine TRPM8, sequence (Q1A7N1 1-1104): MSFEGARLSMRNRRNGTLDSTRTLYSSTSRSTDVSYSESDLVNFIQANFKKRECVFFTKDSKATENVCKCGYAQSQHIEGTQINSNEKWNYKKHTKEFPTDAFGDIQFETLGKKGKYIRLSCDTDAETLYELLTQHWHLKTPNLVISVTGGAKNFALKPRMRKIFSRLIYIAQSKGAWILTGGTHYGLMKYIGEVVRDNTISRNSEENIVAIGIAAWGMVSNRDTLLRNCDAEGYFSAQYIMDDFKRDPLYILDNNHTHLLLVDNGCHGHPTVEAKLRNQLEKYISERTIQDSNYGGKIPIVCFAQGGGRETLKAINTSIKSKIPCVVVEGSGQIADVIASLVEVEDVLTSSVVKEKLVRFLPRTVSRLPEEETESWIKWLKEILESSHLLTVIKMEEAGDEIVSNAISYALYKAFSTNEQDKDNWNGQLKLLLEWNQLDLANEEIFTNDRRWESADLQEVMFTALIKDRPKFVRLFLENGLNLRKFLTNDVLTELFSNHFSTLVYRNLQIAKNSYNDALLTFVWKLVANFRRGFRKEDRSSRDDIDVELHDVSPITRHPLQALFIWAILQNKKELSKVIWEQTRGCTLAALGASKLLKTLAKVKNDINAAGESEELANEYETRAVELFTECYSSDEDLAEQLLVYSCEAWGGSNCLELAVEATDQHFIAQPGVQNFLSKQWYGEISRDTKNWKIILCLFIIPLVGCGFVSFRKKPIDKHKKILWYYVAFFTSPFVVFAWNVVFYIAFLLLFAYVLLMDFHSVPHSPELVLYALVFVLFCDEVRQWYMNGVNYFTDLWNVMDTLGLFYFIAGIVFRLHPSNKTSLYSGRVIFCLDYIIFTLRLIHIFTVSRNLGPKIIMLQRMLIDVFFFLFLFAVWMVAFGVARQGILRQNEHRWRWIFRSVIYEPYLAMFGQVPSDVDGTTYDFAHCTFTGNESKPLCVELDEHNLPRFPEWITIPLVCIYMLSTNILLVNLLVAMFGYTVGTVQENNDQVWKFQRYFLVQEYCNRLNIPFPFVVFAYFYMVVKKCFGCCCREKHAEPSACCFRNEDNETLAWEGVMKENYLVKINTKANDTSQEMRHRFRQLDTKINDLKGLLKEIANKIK
At 24 hrs prior to assay, HEK293 cells stably expressing canine TRPM8 were seeded in culture medium in black wall, clear-base poly-D-lysine coated 384-well plates (BD Biosciences, NJ, USA) and grown overnight in 5% CO2 at 37° C. On assay day, growth media was removed and cells were loaded with Calcium 3 Dye (Molecular Devices) for 35 min at 37° C., under 5% CO2 and then for 25 min at room temperature and atmosphere. Subsequently, cells were tested for agonist-induced increases in intracellular Ca^2+ levels using FLIPR™ or FDSS. Cells were challenged with a compound of the Formula (I) (at varying concentrations) and intracellular Ca^2+ was measured for 5 min prior to the addition of icilin to all wells to achieve a final concentration that produces approximately an 80% maximal response. EC50 or IC50 values for compounds of the present invention were determined from eight-point dose-response studies. Curves were generated using the average of quadruplicate wells for each data point.

Where [1] appears, read: HEK293 cells stably expressing canine TRPM8, icilin activation, eight-point dose-response.
The mark [2] stands for this setting: compound at 0.2 μM, canine TRPM8, icilin activation.
Setting [3] is: compound at 0.5 μM, canine TRPM8, icilin activation, read-out: % Inh @ 0.5.
[4] abbreviates: 0.2 μM compound, HEK293 cells stably expressing canine TRPM8, icilin activation.
Where [5] appears, read: HEK293 cells stably expressing canine TRPM8, icilin activation, average of two or more determinations.

The structures appear in SMILES notation. Where two headings read alike, the source gives them in different places.

What is called IC50 is the concentration that gives 50% inhibition. With `NC(=O)c1c(N(Cc2ccc(F)c(C(F)(F)F)c2)S(=O)(=O)c2ccccc2)sc2ccccc12` [Compound 459, N-(3-Carbamoyl-benzo[b]thiophen-2-yl)-N-(4-fluoro-3-trifluoromethyl-benzyl)-benzenesulfonamide], the half-inhibitory concentration (IC50) under setting [1] was 9 nM. The inhibition at 0.2 µM under setting [2] was 102%.
For the compound `CC(C)(C)OCCN(c1sc2ccccc2c1Br)S(=O)(=O)c1ccccc1` [Compound 234, N-(3-Bromo-benzo[b]thiophen-2-yl)-N-(2-tert-butoxy-ethyl)-benzenesulfonamide], the concentration for half-maximal inhibition (IC50) under setting [1] came to 10 nM. In addition, the inhibition at 0.5 µM under setting [3] amounted to 93%.
The corresponding values for `O=S(=O)(c1ccccc1)N(Cc1cccc(F)c1)c1sc2ccccc2c1Cl` [Compound 23, N-(3-Chloro-benzo[b]thiophen-2-yl)-N-(3-fluoro-benzyl)-benzenesulfonamide] are 26 nM and 99%.
Consider `CCS(=O)(=O)N(Cc1ccc(F)c(C(F)(F)F)c1)c1sc2ccccc2c1-c1ccccc1F` [Compound 200, N-[3-(2-Fluoro-phenyl)-benzo[b]thiophen-2-yl]-N-(4-fluoro-3-trifluoromethyl-benzyl)-ethanesulfonamide], for which the inhibition at 0.2 µM under setting [2] came out at 29%.
Regarding `Cc1nn(C)c(C)c1S(=O)(=O)N(Cc1ccc(F)c(C(F)(F)F)c1)c1sc2ccccc2c1C` [Compound 74, N-(4-Fluoro-3-trifluoromethyl-benzyl)-N-(3-methyl-benzo[b]thiophen-2-yl)-1,3,5-trimethyl-1H-pyrazole-4-sulfonamide], under setting [1], the 50% inhibitory concentration (IC50) is 21 nM. The inhibition at 0.2 µM under setting [2] was 97%.
Turning to `Cc1c(N(Cc2ccc(F)c(C(F)(F)F)c2)S(=O)(=O)CCCO)sc2ccccc12` [Compound 699, N-(4-Fluoro-3-trifluoromethyl-benzyl)-N-(3-methyl-benzo[b]thiophen-2-yl)-3-hydroxy-propanesulfonamide], under setting [1], the half-maximal inhibitory concentration (IC50) was found to be 6 nM. In addition, the inhibition at 0.2 µM under setting [2] is 103%.
With `O=S1NC(c2ccc(S(=O)(=O)N(CCCCC(F)(F)F)c3sc4ccccc4c3Br)cc2)=NO1` (centres unmarked) [Compound 581, N-(3-Bromo-benzo[b]thiophen-2-yl)-N-(5,5,5-trifluoro-pentyl)-4-(3H-[1,2,3,5]oxathiadiazole-2-oxide)-benzenesulfonamide], under setting [1], the half-maximal inhibitory concentration (IC50) was 25.1 nM. Further, the “% Inh @ 0.2 (μM)” value under setting [2] was 100%.
Take `COC(=O)c1cccc(S(=O)(=O)N(Cc2ccc(F)c(C(F)(F)F)c2)c2sc3ccccc3c2C)c1` [Compound 137, N-(3-Methyl-benzo[b]thiophen-2-yl)-N-(4-fluoro-3-trifluoromethyl-benzyl)-3-carbomethoxy-benzenesulfonamide]: the IC50 under setting [1] was 8 nM. Besides, the inhibition at 0.2 µM under setting [2] was determined as 98%.
As to `CCS(=O)(=O)N(Cc1ccc(F)c(F)c1)c1sc2ccccc2c1C(C)=O` [Compound 203], under “read-out: % Inh @ 0.5 (μM)”, the inhibition at 0.5 µM came to 93%.
Turning to `Cc1cccc(CN(c2cc3ccccc3s2)S(=O)(=O)c2ccccc2)c1` [Compound 63], the 50% inhibitory concentration (IC50) under setting [1] was found to be 74 nM. Also, for the setting “compound at 0.5 μM, canine TRPM8, icilin activation”, the “% Inh @ 0.5 (μM)” value was 98%.
Turning to `CCCCN(c1sc2ccccc2c1C)S(=O)(=O)c1cccnc1N(C)C` [Compound 448, N-(3-Methyl-benzo[b]thiophen-2-yl)-N-(butyl)-2-dimethylamino-pyridin-3-yl-sulfonamide], the half-maximal inhibitory concentration (IC50) under setting [1] amounted to 12 nM. Moreover, under setting [2], the inhibition at 0.2 µM is 102%.
The corresponding values for `CC(=O)c1c(N(Cc2ccc(F)c(C(F)(F)F)c2)S(=O)(=O)c2ccc(C(=O)O)cc2)sc2ccccc12` [Compound 318, N-(3-Acetyl-benzo[b]thiophen-2-yl)-N-(4-fluoro-3-trifluoromethyl-benzyl)-4-carboxy-benzenesulfonamide] are 15 nM and 101%.
Take `CCCCN(c1sc2ccccc2c1C(C)(C)O)S(=O)(=O)c1ccc(C(C)(C)O)cc1` [Compound 341, N-(Butyl)-N-(3-(1-hydroxy-1-methyl-ethyl)-benzo[b]thiophen-2-yl)-4-(2-1-hydroxy-1-methyl-ethyl)-benzenesulfonamide]: the half-maximal inhibitory concentration (IC50) under setting [1] was 14 nM. Besides, the “% Inh @ 0.2 (μM)” value under setting [2] worked out at 96%.
Take `CCS(=O)(=O)N(Cc1ccc(F)c(C(F)(F)F)c1)c1sc2ccccc2c1C(C)OC` (centres unmarked) [Compound 839, N-(4-Fluoro-3-trifluoromethyl-benzyl)-N-[3-(1-methoxy-ethyl)-benzo[b]thiophen-2-yl]-ethanesulfonamide]: under setting [4], the inhibition at 0.2 µM came to 101%. Besides, the IC50 under setting [5] was 15.9 nM.
In the same order, the values of `Cc1c(N(Cc2ccc(OC(F)(F)F)cc2)S(=O)(=O)c2ccc(-c3nnn[nH]3)nc2)sc2ccccc12` [Compound 805] are 103% and 2.2 nM.
For `Cc1c(N(CCc2ccccc2)S(=O)(=O)c2ccccc2)sc2ccccc12` [Compound 104, N-(3-Methyl-benzo[b]thiophen-2-yl)-N-(phenethyl)-benzenesulfonamide], the half-inhibitory concentration (IC50) under setting [1] was 8.9 nM. Further, the inhibition at 0.2 µM under setting [2] was 98%.
On to `CCCCN(c1sc2ccccc2c1C)S(=O)(=O)c1ccc(-c2nnn[nH]2)cc1` [Compound 539, N-(3-Methyl-benzo[b]thiophen-2-yl)-N-(butyl)-4-(1H-tetrazol-5-yl)-benzenesulfonamide], for which, under setting [1], the IC50 is 6.7 nM. The inhibition at 0.2 µM under setting [2] was found to be 105%.
As for `COc1ccc2c(Br)c(N(Cc3ccc(F)c(F)c3)S(=O)(=O)c3cccnc3)sc2c1` [Compound 141, N-(3-Bromo-6-methoxy-benzo[b]thiophen-2-yl)-N-(3,4-difluoro-benzyl)-pyridin-3-yl-sulfonamide], the inhibition at 0.2 µM under setting [2] was 18%.
Still for that read-out and setting: the same measure for `Cc1c(N(CCC(F)(F)F)S(=O)(=O)CCC(=O)O)sc2ccccc12` [Compound 604, N-(3-Methyl-benzo[b]thiophen-2-yl)-N-(3,3,3-trifluoro-propyl)-2-carboxy-ethanesulfonamide]: 13%.
For the compound `Cc1c(N(Cc2ccc(F)cc2C(F)(F)F)S(=O)(=O)c2ccc(C(=O)O)cc2)sc2ccccc12` [Compound 522, N-(3-Methyl-benzo[b]thiophen-2-yl)-N-(4-fluoro-2-trifluoromethyl-benzyl)-4-carboxy-benzenesulfonamide], the IC50 under setting [1] was determined as 4 nM. For the same compound, under setting [2], the inhibition at 0.2 µM stood at 101%.
For the compound `O=S(=O)(c1cccc(F)c1)N(Cc1ccc(F)c(F)c1)c1cc2ccccc2s1` [Compound 131, N-(Benzo[b]thiophen-2-yl)-N-(3,4-difluoro-benzyl)-3-fluoro-benzenesulfonamide], the IC50 under setting [1] came to 48 nM. In addition, the inhibition at 0.5 µM under setting [3] worked out at 95%.
Regarding `CCCCN(c1sc2ccccc2c1Cl)S(=O)(=O)c1ccc(C2=NOS(=O)N2)cc1` (centres unmarked) [Compound 485, N-(3-Chloro-benzo[b]thiophen-2-yl)-N-(butyl)-4-(3H-[1,2,3,5]oxathiadiazole-2-oxide)-benzenesulfonamide], under setting [1], the IC50 was determined as 21 nM. Besides, the “% Inh @ 0.2 (μM)” value under setting [2] is recorded as 96%.
As to `Cc1c(N(CC(F)F)S(=O)(=O)c2ccccc2)sc2ccccc12` [Compound 102, N-(2,2-Difluoro-ethyl)-N-(3-methyl-benzo[b]thiophen-2-yl)-benzenesulfonamide], the concentration for half-maximal inhibition (IC50) under setting [1] was 40.2 nM. Besides, the inhibition at 0.2 µM under setting [2] worked out at 98%.
In the same order, the values of `O=S(=O)(c1ccc(-c2nnn[nH]2)cc1)N(CC1CC1)c1sc2ccccc2c1Br` [Compound 474, N-(3-Bromo-benzo[b]thiophen-2-yl)-N-(cyclopropyl-methyl)-4-(1H-tetrazol-5-yl)-benzenesulfonamide] are 8 nM and 101%.
